# Assay results: US12692230B2, “(1 h-indol-5-yl)acrylamide derivatives as inhibitors of TEAD proteins and the hippo-YAP1/TAZ signaling cascade for the treatment of cancer” (Sanofi, priority 2020, dated 2026)
# Test system: TEAD responsive promoter element (8XGTIIC-Luciferase; YAP1-TEAD and TAZ-TEAD activity)
# Assay: TEAD-Luciferase reporter assay
# Format: cell-based
# Conditions: Homo sapiens; luciferase activity in tumor cell lines with stable integration of the 8XGTIIC-Luciferase construct; 10 doses between 1 and 10000 nM, 48 hrs
# Description: TEAD-Luciferase Reporter Assay
# Luciferase-based gene reporter assays were used, employing the TEAD responsive promoter element that are stably integrated to different human tumor cell lines in order to monitor YAP1-TEAD and TAZ-TEAD activity and to study YAP1/TAZ-TEAD activity modulation by small molecule compounds. Luciferase-based gene reporter assays employing the GAPDH promoter element and stably integrated to different human tumor cell lines are used as counter screen control cell lines.
# Tumor cell lines with stable integration of the 8XGTIIC-Luciferase construct (Dupont et al., Nature 2011) or the GAPDH-Luciferase control plasmid, are seeded in culture medium in 96-well plates at a density of 8000 cells/well. Following an overnight incubation in a 37° C., 5% CO2 growth chamber, cells are treated with compounds described above at 10 doses ranging between 1 and 10000 nM for 48 hrs. After compound incubation, cells are lysed with Bright-Glo Luciferase Assay System (Promega E2620) and luciferase activity is measured using a luminescent plate reader.
# The inhibitory activity of the compounds with respect to luciferase activity is given by the concentration which inhibits 50% of activity of non-treated cells. IC50s are determined with a nonlinear regression model on XLfit software analysis (IDBS, UK).
row,SMILES,IC50
1,"C=CC(=O)Nc1ccc2c(ccn2CCOCC(F)(F)F)c1 [Example 37, N-(1-(2-(2,2,2-trifluoroethoxy)ethyl)-1H-indol-5-yl)acrylamide]",> 10000 nM
2,"C=CC(=O)Nc1ccc2c(ccn2C2CCN(CC(F)(F)F)CC2)c1 [Example 38, N-(1-(1-(2,2,2-trifluoroethyl)piperidin-4-yl)-1H-indol-5-yl)acrylamide]",1500 nM
3,"C=CC(=O)Nc1ccc2c(ccn2C2CCC(F)(F)CC2)c1 [Example 39, N-(1-(4,4-difluorocyclohexyl)-1H-indol-5-yl)acrylamide]",84 nM
4,"C=CC(=O)Nc1ccc2c(ccn2C2CCN(c3ccc(C(F)(F)F)cc3)CC2)c1 [Example 40, N-(1-(1-(4-(trifluoromethyl)phenyl)piperidin-4-yl)-1H-indol-5-yl)acrylamide]",≥ 10000 nM
5,"C=CC(=O)Nc1ccc2c(ccn2CCCN2CCC(F)(F)C2)c1 [Example 41, N-(1-(3-(3,3-difluoropyrrolidin-1-yl)propyl)-1H-indol-5-yl)acrylamide]",≥ 10000 nM
6,"C=CC(=O)Nc1ccc2c(ccn2Cc2ccc([Si](C)(C)C)cc2)c1 [Example 42, N-(1-(4-(trimethylsilyl)benzyl)-1H-indol-5-yl)acrylamide]",211 nM
7,"C=CC(=O)Nc1ccc2c(ccn2-c2cccc(C(F)(F)F)c2)c1 [Example 43, N-(1-(3-(trifluoromethyl)phenyl)-1H-indol-5-yl)acrylamide]",36 nM
8,"C=CC(=O)Nc1ccc2c(ccn2-c2ccc(C(F)(F)F)cc2)c1 [Example 44, N-(1-(4-(trifluoromethyl)phenyl)-1H-indol-5-yl)acrylamide]",8 nM
9,"C=CC(=O)Nc1ccc2c(ccn2-c2ccc(C(F)(F)F)nc2)c1 [Example 45, N-(1-(6-(trifluoromethyl)pyridin-3-yl)-1H-indol-5-yl)acrylamide]",106 nM
10,"C=CC(=O)Nc1ccc2c(ccn2-c2ccc(C(F)(F)F)cn2)c1 [Example 46, N-(1-(5-(trifluoromethyl)pyridin-2-yl)-1H-indol-5-yl)acrylamide]",> 10000 nM
11,"C=CC(=O)Nc1ccc2c(ccn2-c2cccnc2)c1 [Example 47, N-(1-(pyridin-3-yl)-1H-indol-5-yl)acrylamide]",> 10000 nM
12,"C=CC(=O)Nc1ccc2c(ccn2-c2ccc(F)cc2)c1 [Example 48, N-(1-(4-fluorophenyl)-1H-indol-5-yl)acrylamide]",> 10000 nM
13,"C=CC(=O)Nc1ccc2c(ccn2-c2ccc(F)c(F)c2)c1 [Example 49, N-(1-(3,4-difluorophenyl)-1H-indol-5-yl)acrylamide]",> 10000 nM
14,"C=CC(=O)Nc1ccc2c(ccn2-c2cccc(S(C)(=O)=O)c2)c1 [Example 50, N-(1-(3-(methylsulfonyl)phenyl)-1H-indol-5-yl)acrylamide]",4680 nM
15,"C=CC(=O)Nc1ccc2c(ccn2-c2ccc(C#N)cc2)c1 [Example 51, N-(1-(4-cyanophenyl)-1H-indol-5-yl)acrylamide]",313 nM
16,"C=CC(=O)Nc1ccc2c(ccn2Cc2cc(F)cc(F)c2)c1 [Example 52, N-(1-(3,5-difluorobenzyl)-1H-indol-5-yl)acrylamide]",41 nM
17,"C=CC(=O)Nc1ccc2c(ccn2Cc2ccc(F)c(F)c2)c1 [Example 53, N-(1-(3,4-difluorobenzyl)-1H-indol-5-yl)acrylamide]",33 nM
18,"C=CC(=O)Nc1ccc2c(ccn2Cc2cccc(C#N)c2)c1 [Example 54, N-(1-(3-cyanobenzyl)-1H-indol-5-yl)acrylamide]",388 nM
19,"C=CC(=O)Nc1ccc2c(ccn2Cc2ccc(C(F)(F)F)o2)c1 [Example 55, N-(1-((5-(trifluoromethyl)furan-2-yl)methyl)-1H-indol-5-yl)acrylamide]",185 nM
20,"C=CC(=O)Nc1ccc2c(ccn2Cc2cscn2)c1 [Example 56, N-(1-(thiazol-4-ylmethyl)-1H-indol-5-yl)acrylamide]",≥ 10000 nM
21,"C=CC(=O)Nc1ccc2c(ccn2Cc2csc(C(F)(F)F)n2)c1 [Example 57, N-(1-((2-(trifluoromethyl)thiazol-4-yl)methyl)-1H-indol-5-yl)acrylamide]",191 nM
22,"C=CC(=O)Nc1cccc2ccn(Cc3cccc(C(F)(F)F)c3)c12 [Example 58, N-(1-(3-(trifluoromethyl)benzyl)-1H-indol-7-yl)acrylamide]",2010 nM
23,"C=CC(=O)Nc1ccc2c(ccn2Cc2cccc(S(C)(=O)=O)c2)c1 [Example 59, N-(1-(3-(methylsulfonyl)benzyl)-1H-indol-5-yl)acrylamide]",2870 nM

row,SMILES,IC50
1,"C=CC(=O)Nc1ccc2c(c1)c(COC)cn2Cc1cccc(C(F)(F)F)c1 [Example 60, N-(3-(methoxymethyl)-1-(3-(trifluoromethyl)benzyl)-1H-indol-5-yl)acrylamide]",88 nM
2,"C=CC(=O)Nc1ccc2c(c1)c(C(=O)OC)cn2Cc1cccc(C(F)(F)F)c1 [Example 61, methyl 5-acrylamido-1-(3-(trifluoromethyl)benzyl)-1H-indole-3-carboxylate]",41 nM
3,"C=CC(=O)Nc1ccc2ccn(-c3cccc(C(F)(F)F)c3)c2c1 [Example 62, N-(1-(3-(trifluoromethyl)phenyl)-1H-indol-6-yl)acrylamide]",64 nM
4,"C=CC(=O)Nc1ccc2c(ccn2-c2ccc(S(F)(F)(F)(F)F)cc2)c1 [Example 63, N-(1-(4-(pentafluoro-λ6-sulfanyl)phenyl)-1H-indol-5-yl)acrylamide]",29 nM
5,"C=CC(=O)Nc1ccc2ccn(-c3ccc(C(F)(F)F)cc3)c2c1 [Example 64, N-(1-(4-(trifluoromethyl)phenyl)-1H-indol-6-yl)acrylamide]",108 nM
6,"C=CC(=O)Nc1ccc2c(ccn2-c2ccc(C(F)(F)F)cc2C)c1 [Example 65, N-(1-(2-methyl-4-(trifluoromethyl)phenyl)-1H-indol-5-yl)acrylamide]",59 nM
7,"C=CC(=O)Nc1ccc2c(ccn2-c2cc(F)cc(F)c2)c1 [Example 66, N-(1-(3,5-difluorophenyl)-1H-indol-5-yl)acrylamide]",1850 nM
8,"C=CC(=O)Nc1ccc2c(ccn2-c2cncc(F)c2)c1 [Example 67, N-(1-(5-fluoropyridin-3-yl)-1H-indol-5-yl)acrylamide]",8540 nM
9,"C=CC(=O)Nc1ccc2c(ccn2-c2ccnc(C(F)(F)F)c2)c1 [Example 68, N-(1-(2-(trifluoromethyl)pyridin-4-yl)-1H-indol-5-yl)acrylamide]",1090 nM
10,"C=CC(=O)Nc1ccc2c(c1)c(C)cn2-c1ccc(C(F)(F)F)cc1 [Example 69, N-(3-methyl-1-(4-(trifluoromethyl)phenyl)-1H-indol-5-yl)acrylamide]",9 nM
11,"C=CC(=O)Nc1ccc2c(c1)cc(C)n2-c1ccc(C(F)(F)F)cc1 [Example 70, N-(2-methyl-1-(4-(trifluoromethyl)phenyl)-1H-indol-5-yl)acrylamide]",12 nM
12,"C=CC(=O)N(C)c1ccc2c(c1)cc(C)n2-c1ccc(C(F)(F)F)cc1 [Example 71, N-methyl-N-[2-methyl-1-[4-(trifluoromethyl)phenyl]indol-5-yl]acrylamide]",24 nM
13,"C=CC(=O)Nc1ccc2c(c1)c(COC)cn2-c1ccc(C(F)(F)F)cc1 [Example 72, N-(3-(methoxymethyl)-1-(4-(trifluoromethyl)phenyl)-1H-indol-5-yl)acrylamide]",15 nM
14,"C=CC(=O)Nc1cc2ccn(-c3ccc(C(F)(F)F)cc3)c2cc1F [Example 73, N-(6-fluoro-1-(4-(trifluoromethyl)phenyl)-1H-indol-5-yl)acrylamide]",244 nM
15,"C=CC(=O)N(C)c1ccc2c(ccn2-c2ccc(C(F)(F)F)cc2)c1 [Example 74, N-methyl-N-(1-(4-(trifluoromethyl)phenyl)-1H-indol-5-yl)acrylamide]",106 nM
16,"C/C=C/C(=O)Nc1ccc2c(ccn2-c2ccc(C(F)(F)F)cc2)c1 [Example 75, (E)-N-(1-(4-(trifluoromethyl)phenyl)-1H-indol-5-yl)but-2-enamide]",458 nM
17,"CN(C)C/C=C/C(=O)Nc1ccc2c(ccn2-c2ccc(C(F)(F)F)cc2)c1 [Example 76, (E)-4-(dimethylamino)-N-(1-(4-(trifluoromethyl)phenyl)-1H-indol-5-yl)but-2-enamide]",3830 nM
18,"C=CC(=O)Nc1cc2ccn(-c3ccc(C(F)(F)F)cc3)c2cc1Cl [Example 77, N-(6-chloro-1-(4-(trifluoromethyl)phenyl)-1H-indol-5-yl)acrylamide]",534 nM
19,"C=CC(=O)Nc1cc2ccn(Cc3cccc(C(F)(F)F)c3)c2cc1Cl [Example 78, N-(6-chloro-1-(3-(trifluoromethyl)benzyl)-1H-indol-5-yl)acrylamide]",141 nM
20,"C=CC(=O)Nc1cc(Cl)c2c(ccn2Cc2cccc(C(F)(F)F)c2)c1 [Example 79, N-(7-chloro-1-(3-(trifluoromethyl)benzyl)-1H-indol-5-yl)acrylamide]",85 nM
21,"C=CC(=O)Nc1cc2ccn(Cc3cccc(C(F)(F)F)c3)c2cc1F [Example 80, N-(6-fluoro-1-(3-(trifluoromethyl)benzyl)-1H-indol-5-yl)acrylamide]",18 nM
22,"C=CC(=O)Nc1cc(Cl)c2c(ccn2-c2ccc(C(F)(F)F)cc2)c1 [Example 81, N-(7-chloro-1-(4-(trifluoromethyl)phenyl)-1H-indol-5-yl)acrylamide]",68 nM
